The values below come from patent publication US12668587B2, “Benzimidazolone GLP-1 receptor agonist and use thereof” (HANGZHOU ZHONGMEIHUADONG PHARMACEUTICAL CO., LTD., priority 2020, dated 2026).

Molecules are shown by their SMILES. Read-outs that look alike come from different tables or passages of the source.

This test deals with Human GLP-1R (Homo sapiens, UniProt P43220). Briefly: GLP-1R agonist activity, HTRF cAMP detection in 293A GFP-GLP-1R cells. Particulars: for Emax: 293A. On the set-up: Emax: dose or concentration left out as unconfirmed. On the technique in general: In TR-FRET formats the signal depends on donor and acceptor labels being close together.
[1] abbreviates: cAMP level, 293A GFP-GLP-1R cells, 30 min incubation, geometric mean.

Sequence of Human GLP-1R (P43220 24-463): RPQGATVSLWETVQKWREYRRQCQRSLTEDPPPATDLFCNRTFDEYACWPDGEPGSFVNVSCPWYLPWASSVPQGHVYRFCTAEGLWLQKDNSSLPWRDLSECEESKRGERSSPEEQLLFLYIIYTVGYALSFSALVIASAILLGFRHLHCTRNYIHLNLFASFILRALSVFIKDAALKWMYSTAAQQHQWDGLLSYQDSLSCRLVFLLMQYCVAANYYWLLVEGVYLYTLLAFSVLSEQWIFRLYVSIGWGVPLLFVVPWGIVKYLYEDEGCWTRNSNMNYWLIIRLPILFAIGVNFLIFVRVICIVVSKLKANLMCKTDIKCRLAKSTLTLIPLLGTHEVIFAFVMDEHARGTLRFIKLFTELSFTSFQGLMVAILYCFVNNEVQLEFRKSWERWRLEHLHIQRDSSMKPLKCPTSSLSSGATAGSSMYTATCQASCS
Method: GLP-1R-mediated agonist activity was determined by cell-based assays using a homogeneous time-resolved fluorescence (i.e., HTRF)-based cAMP detection kit, which measures the level of cAMP in cells. The method was a competitive immunoassay. It enabled direct pharmacological characterization of compounds acting on Gs-coupled receptors in adherent or suspending cells.
The standard curve of native cAMP or unlabeled cAMP produced by cells competed with d2-labeled cAMP red receptors to bind monoclonal anti-cAMP Eu3+ cryptate donors, and the specific signal was inversely proportional to the concentration of cAMP in standard or tested samples.
Human GLP-1R encoding sequence (NCBI reference sequence NP_002053.3) was subcloned into pEGFP-N1 (tsingke), and the cell line stably expressing the receptor was isolated. The expression density of GLP-1R was confirmed by the expression of GFP observed under a fluorescence microscope.
Cells were collected from a T25 tissue culture flask and centrifuged at room temperature at 1000 rpm for 5 minutes. The cell precipitates were then re-suspended in 1 mL of the stimulating buffer. 20 μL sample of cell suspension was counted on a counter STAR IC 1000 to determine the cell viability and the cell count per mL. The remaining cell suspension was then regulated with the stimulating buffer to deliver 2000 living cells per well using a multi-channel pipette. 5 μL of the cell suspension was added to each well of the plate which already contained the compound. The plate was sealed and incubated at 37° C. with 5% CO2 for 30 minutes.
After 30 minutes of incubation, 5 μL of d2-labeled cAMP and 5 μL of anti-cAMP cryptate (both 1: 20 diluted in the cell lysis buffer) were added to each well of the plate. The plate was then incubated at room temperature for 60 minutes, and the changes of HTRF signal were read with Tecan Spark reader: absorbance values at 340 nm (excitation)/at 615 nm and 665 nm (emission). Raw data were converted into nM cAMP by interpolation from the cAMP standard curve, and the effect in percentage was determined relative to the saturated concentration of the complete agonist GLP-17˜37 (400 nM) contained in each plate. Determination of EC50 was performed based on the agonist dose-response curve, which was analyzed using a four-parameter logical dose-response equation with a curve fitting program.
The test data presented the results in the form of a geometric mean (EC50s) based on the number of repetition times.

As a reminder, the EC50 is the midpoint of the concentration-response curve. `O=C(O)c1ccc2nc(CC3CCN(c4cccc(OCc5ccc(C(=O)C6CC6)cc5F)n4)CC3)n(C[C@@H]3CCO3)c2c1` [Compound 42, (S)-2-((1-(6-((4-(cyclopropanecarbonyl)-2-fluorobenzyl)oxy)pyridin-2-yl)piperidin-4-yl)methyl)-1-(oxetan-2-ylmethyl)-1H-benzo[d]imidazole-6-carboxylic acid] had an EC50 of 0.23 nM.
Regarding `CCn1cnc(Cn2c(CN3CCC(c4cccc(OCc5ccc(C(=O)C6CC6)cc5F)n4)CC3)nc3ccc(C(=O)O)cc32)c1` [Compound 35, 2-((4-(6-((4-(cyclopropanecarbonyl)-2-fluorobenzyl)oxy)pyridin-2-yl)piperidin-1-yl)methyl)-1-((1-ethyl-1H-imidazol-4-yl)methyl)-1H-benzo[d]imidazole-6-carboxylic acid], the EC50 is 32 nM.
What is called Emax is the size of the effect at its maximum, as opposed to the concentration needed. Compound `CNC(=O)c1ccc(COc2cccc(C3CCN(Cc4nc5ccc(C(=O)O)cc5n4C[C@@H]4CCO4)CC3)n2)c(F)c1` [Compound 4, (S)-2-((4-(6-((2-fluoro-4-(methylcarbamoyl)benzyl)oxy)pyridin-2-yl)piperidin-1-yl)methyl)-1-(oxetan-2-ylmethyl)-1H-benzo[d]imidazole-6-carboxylic acid] had an Emax of 68.6%. Further, the EC50 under setting [1] amounted to 179 nM.
The compound `COc1cc(C(C)=O)ccc1COc1cccc(C2CCN(Cc3nc4ccc(C(=O)O)cc4n3C[C@@H]3CCO3)CC2)n1` [Compound 12, (S)-2-((4-(6-((4-acetyl-2-methoxybenzyl)oxy)pyridin-2-yl)piperidin-1-yl)methyl)-1-(oxetan-2-ylmethyl)-1H-benzo[d]imidazole-6-carboxylic acid] yielded an EC50 of 0.25 nM and an Emax of 147%.
`CN1CCC(C(=O)c2ccc(COc3cccc(C4CCN(Cc5nc6ccc(C(=O)O)cc6n5C[C@@H]5CCO5)CC4)n3)c(F)c2)CC1` [Compound 29, (S)-2-((4-(6-((2-fluoro-4-(1-methylpiperidin-4-carbonyl)benzyl)oxy)pyridin-2-yl)piperidin-1-yl)methyl)-1-(oxetan-2-ylmethyl)-1H-benzo[d]imidazole-6-carboxylic acid]: the Emax was determined as 7.12%.
In turn, `O=C(O)c1ccc2nc(Cc3ccc(-c4cccc(OCc5ccc(C(=O)C6CC6)cc5F)n4)cc3F)n(C[C@@H]3CCO3)c2c1` [Compound 46] had a half-maximal effective concentration (EC50) of 0.02 nM.
In turn, `COc1cc(COc2cccc(C3=CCN(Cc4nc5ccc(C(=O)O)cc5n4C[C@@H]4CCO4)CC3)n2)ccc1C(C)=O` [Compound 23, (S)-2-((6-((4-acetyl-3-methoxybenzyl)oxy)-3′,6′-dihydro-[2,4′-bipyridin]-1′(2′H)-yl)methyl)-1-(oxetan-2-ylmethyl)-1H-benzo[d]imidazole-6-carboxylic acid] showed an EC50 of 16.1 nM and an Emax of 108%.
As to `COc1cc(C(=O)C(C)C)ccc1COc1cccc(C2CCN(Cc3nc4ccc(C(=O)O)cc4n3C[C@@H]3CCO3)CC2)n1` [Compound 32, (S)-2-((4-(6-((4-isobutyryl-2-methoxybenzyl)oxy)pyridin-2-yl)piperidin-1-yl)methyl)-1-(oxetan-2-ylmethyl)-1H-benzo[d]imidazole-6-carboxylic acid], it took 416 nM to reach a half-maximal effect (EC50) and the Emax came to 102%.
In turn, `CN(C)C(=O)c1ccc(COc2cccc(C3CCN(Cc4nc5ccc(C(=O)O)cc5n4C[C@@H]4CCO4)CC3)n2)c(F)c1` [Compound 24, (S)-2-((4-(6-((4-(dimethylcarbamoyl)-2-fluorobenzyl)oxy)pyridin-2-yl)piperidin-1-yl)methyl)-1-(oxetan-2-ylmethyl)-1H-benzo[d]imidazole-6-carboxylic acid] came in with an EC50 greater than 1000 nM and an Emax of 25.8%.
The matching figures for `CC(=O)c1ccc(COc2cccc(C3CCN(Cc4nc5ccc(C(=O)O)cc5n4C[C@@H]4CCO4)CC3)n2)c(F)c1` [Compound 1, (S)-2-((4-(6-((4-acetyl-2-fluorobenzyl)oxy)pyridin-2-yl)piperidin-1-yl)methyl)-1-(oxetan-2-ylmethyl)-1H-benzo[d]imidazole-6-carboxylic acid]: 0.85 nM and 111%.
The matching figures for `CC(=O)c1ccc(COc2cccc(C3CCN(Cc4nc5ccc(C(=O)O)cc5n4C[C@@H]4CCO4)CC3)n2)c(Cl)c1` [Compound 27]: 0.13 nM and 83.9%.
In turn, `CC(=O)c1cc(F)c(COc2cccc(C3CCN(Cc4nc5ccc(C(=O)O)cc5n4C[C@@H]4CCO4)CC3)n2)c(F)c1` [Compound 13, (S)-2-((4-(6-((4-acetyl-2,6-difluorobenzyl)oxy)pyridin-2-yl)piperidin-1-yl)methyl)-1-(oxetan-2-ylmethyl)-1H-benzo[d]imidazole-6-carboxylic acid] displayed an EC50 of 40 nM and an Emax of 88.5%.
As for `CS(=O)(=O)c1ccc(COc2cccc(C3CCN(Cc4nc5ccc(C(=O)O)cc5n4C[C@@H]4CCO4)CC3)n2)c(F)c1` [Compound 2, (S)-2-((4-(6-((2-fluoro-4-(methylsulfonyl)benzyl)oxy)pyridin-2-yl)piperidin-1-yl)methyl)-1-(oxetan-2-methyl)-1H-benzo[d]imidazole-6-carboxylic acid], the EC50 was greater than 1000 nM and the Emax came to 29.8%.
On the same counts, the results for `CON(C)C(=O)c1ccc(COc2cccc(C3CCN(Cc4nc5ccc(C(=O)O)cc5n4C[C@@H]4CCO4)CC3)n2)c(F)c1` [Compound 15, (S)-2-((4-(6-((2-fluoro-4-(methoxy(methyl)carbamoyl)benzyl)oxy)pyridin-2-yl)piperidin-1-yl)methyl)-1-(oxetan-2-ylmethyl)-1H-benzo[d]imidazole-6-carboxylic acid] are greater than 1000 nM and 13.6%.
Regarding `CC(=O)c1cccc(COc2cccc(C3CCN(Cc4nc5ccc(C(=O)O)cc5n4C[C@@H]4CCO4)CC3)n2)c1` [Compound 18, (S)-2-((4-(6-((3-acetylbenzyl)oxy)pyridin-2-yl)piperidin-1-yl)methyl)-1-(oxetan-2-ylmethyl)-1H-benzo[d]imidazole-6-carboxylic acid], the EC50 stood at 22.1 nM and the Emax is 113%.
In turn, `CP(C)(=O)c1ccc(COc2cccc(C3CCN(Cc4nc5ccc(C(=O)O)cc5n4C[C@@H]4CCO4)CC3)n2)c(F)c1` [Compound 6, (S)-2-((4-(6-((4-(dimethylphosphoryl)-2-fluorobenzyl)oxy)pyridin-2-yl)piperidin-1-yl)methyl)-1-(oxetan-2-ylmethyl)-1H-benzo[d]imidazole-6-carboxylic acid] had an EC50 greater than 1000 nM and an Emax of 7.07%.
The matching figures for `Cc1cc(C(=O)C2CC2)ccc1COc1cccc(N2CCN(Cc3nc4ccc(C(=O)O)cc4n3C[C@@H]3CCO3)[C@@H](C)C2)n1` [Compound 41, 2-(((S)-4-(6-((4-(cyclopropanecarbonyl)-2-methylbenzyl)oxy)pyridin-2-yl)-2-methylpiperazin-1-yl)methyl)-1-(((S)-oxetan-2-yl)methyl)-1H-benzo[d]imidazole-6-carboxylic acid]: greater than 1000 nM and 77.3%.
The matching figures for `CC(=O)c1ccc(COc2cccc(C3CCN(Cc4nc5ccc(C(=O)O)cc5n4C[C@@H]4CCO4)CC3)n2)c(C)c1` [Compound 10, (S)-2-((4-(6-((4-acetyl-2-methylbenzyl)oxy)pyridin-2-yl)piperidin-1-yl)methyl)-1-(oxetan-2-ylmethyl)-1H-benzo[d]imidazole-6-carboxylic acid]: 1.67 nM and 125%.
For the compound `O=C(O)c1ccc2nc(CN3CCC(c4cccc(OCc5ccc(C(=O)C6CC6)cc5F)n4)CC3)n(C[C@@H]3CCO3)c2c1` [Compound 7, (S)-2-((4-(6-((4-(cyclopropanecarbonyl)-2-fluorobenzyl)oxy)pyridin-2-yl)piperidin-1-yl)methyl)-1-(oxetan-2-ylmethyl)-1H-benzo[d]imidazole-6-carboxylic acid], the Emax is 103%. The compound also displayed an EC50 under setting [1] of 0.75 nM.
In turn, `CC(=O)c1ccc(COc2cccc(N3CCN(Cc4nc5ccc(C(=O)O)cc5n4C[C@@H]4CCO4)[C@@H](C)C3)n2)c(F)c1` [Compound 28, 2-(((S)-4-(6-((4-acetyl-2-fluorobenzyl)oxy)pyridin-2-yl)-2-methylpiperazin-1-yl)methyl)-1-(((S)-oxetan-2-yl)methyl)-1H-benzo[d]imidazole-6-carboxylic acid] displayed an EC50 of 0.3 nM and an Emax of 95.2%.
The matching figures for `COc1cc(C(=O)C2CC2)ccc1COc1cccc(C2CCN(Cc3nc4ccc(C(=O)O)cc4n3C[C@@H]3CCO3)CC2)n1` [Compound 20, (S)-2-((4-(6-((4-(cyclopropanecarbonyl)-2-methoxybenzyl)oxy)pyridin-2-yl)piperidin-1-yl)methyl)-1-(oxetan-2-ylmethyl)-1H-benzo[d]imidazole-6-carboxylic acid]: 0.31 nM and 120%.
Take `O=C(O)c1ccc2nc(Cc3ccc(-c4cccc(OCc5ccc(C(=O)C6CC6)cc5F)n4)cc3F)n(CC3(CF)CC3)c2c1` [Compound 48]: the EC50 was 0.065 nM.
Same read-out and setting: then `O=C(O)c1ccc2nc(CN3CCC(c4cccc(OCc5ccc(C(=O)C6CC6)cc5Cl)n4)CC3)n(C[C@@H]3CCO3)c2c1` [Compound 44, (S)-2-((4-(6-((2-chloro-4-(cyclopropanecarbonyl)benzyl)oxy)pyridin-2-yl)piperidin-1-yl)methyl)-1-(oxetan-2-ylmethyl)-1H-benzo[d]imidazole-6-carboxylic acid], with 0.02 nM.
`CC(C)C(=O)c1ccc(COc2cccc(C3CCN(Cc4nc5ccc(C(=O)O)cc5n4C[C@@H]4CCO4)CC3)n2)c(F)c1` [Compound 43, (S)-2-((4-(6-((2-fluoro-4-isobutyrylbenzyl)oxy)pyridin-2-yl)piperidin-1-yl)methyl)-1-(oxetan-2-ylmethyl)-1H-benzo[d]imidazole-6-carboxylic acid]: under setting [1], the EC50 was 1.4 nM.
